Experiment [1] concerns the target T1, SUCR1 mutants (variant named in the endpoint) (Homo sapiens, UniProt Q9BXA5, F175L).
T1 construct: The full-length human SUCR1 and mutations were fused after the HA signal peptide and Flag tag; HA signal peptide (N); Flag (N); expressed in transfected cells; host or cells: HEK293 stably expressing Gα16 (pcDNA6.0, transient electroporation)
T1 sequence (Q9BXA5 1-334 F175L): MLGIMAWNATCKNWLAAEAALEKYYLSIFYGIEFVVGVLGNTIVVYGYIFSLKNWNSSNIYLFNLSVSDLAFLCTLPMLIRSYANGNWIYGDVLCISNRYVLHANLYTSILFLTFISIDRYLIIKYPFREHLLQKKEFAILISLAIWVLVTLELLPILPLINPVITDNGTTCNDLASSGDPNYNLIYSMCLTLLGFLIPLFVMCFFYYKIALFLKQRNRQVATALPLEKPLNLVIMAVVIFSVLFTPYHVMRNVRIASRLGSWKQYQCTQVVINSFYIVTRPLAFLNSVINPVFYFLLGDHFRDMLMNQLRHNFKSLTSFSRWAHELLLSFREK
Kind of experiment: Calcium mobilization assay, SUCR1 mutants in HEK293 stably expressing Gα16.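 As to Emax: percent of the maximal response to succinate.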 Format: cell-based. As to conditions: for EC50: SUCR1 F175L.
Procedure: (§1) The full-length human SUCR1 and mutations were fused after the HA signal peptide and Flag tag. The constructs were cloned into pcDNA6.0 vector for HEK293 system.
(§2) HEK293 cells were obtained from ATCC (Manassas, VA, USA) and cultured in DMEM supplemented with 10% (v/v) FBS, 100 mg/L penicillin, and 100 mg/L streptomycin in 5% CO2 at 37 °C. For transient transfection, ~2.5 × 10^6 cells were mixed with 2 µg plasmids in 200 µL transfection buffer, and electroporation was carried out with a Scientz-2C electroporation apparatus (Scientz Biotech, Ningbo, China). The experiments were carried out 24 h after transfection. HEK293 cell lines stably expressing Gα16 were constructed by our laboratory.
(§3) For OXGR1, plasmids were transfected into HEK293 (other receptors were transfected into HEK293 stably expressing Gα16) and seeded at a density of 4 × 10^4 per well into 96-well culture plates and incubated for 24 h at 37 °C in 5% CO2. The next day, Cells were incubated with 2 μM/L Fluo-4 AM in HBSS supplemented with 5.6 mM/L D-glucose and 250 μM/L sulfinpyrazone at 37 °C for 45 min. […] Three independent measurements were repeated, i.e., three different transfections, with three technical replicates performed for each experiment. EC50 and Emax values for each curve were calculated by Prism 8.0 software (GraphPad Software).

For experiment [2], the target named is T2, SUCR1 mutants (variant named in the endpoint) (Homo sapiens, UniProt Q9BXA5, F175L/I157M).
T2 construct: The full-length human SUCR1 and mutations were fused after the HA signal peptide and Flag tag; HA signal peptide (N); Flag (N); expressed in transfected cells; host or cells: HEK293 stably expressing Gα16 (pcDNA6.0, transient electroporation)
T2 sequence (Q9BXA5 1-334 I157M/F175L): T1 sequence (Q9BXA5 1-334 F175L) with I157M
Described as above. Format: cell-based.
Procedure: as §1, §2, §3

Experiment [3] concerns the target T3, SUCR1 mutants (variant named in the endpoint) (Homo sapiens, UniProt Q9BXA5, F285A).
T3 construct: The full-length human SUCR1 and mutations were fused after the HA signal peptide and Flag tag; HA signal peptide (N); Flag (N); expressed in transfected cells; host or cells: HEK293 stably expressing Gα16 (pcDNA6.0, transient electroporation)
T3 sequence (Q9BXA5 1-334 F285A): T1 sequence (Q9BXA5 1-334 F175L) with L175F, F285A
Described as above. Format: cell-based.
Procedure: as §1, §2, §3

Experiment [4] concerns the target T4, SUCR1 mutants (variant named in the endpoint) (Homo sapiens, UniProt Q9BXA5, F285A/F72Y/L102F).
T4 construct: The full-length human SUCR1 and mutations were fused after the HA signal peptide and Flag tag; HA signal peptide (N); Flag (N); expressed in transfected cells; host or cells: HEK293 stably expressing Gα16 (pcDNA6.0, transient electroporation)
T4 sequence (Q9BXA5 1-334 F72Y/L102F/F285A): T1 sequence (Q9BXA5 1-334 F175L) with F72Y, L102F, L175F, F285A
The description is as above. It is filed as cell-based.
Procedure: as §1, §2, §3

Experiment [5] deals with T5, SUCR1 mutants (variant named in the endpoint) (Homo sapiens, UniProt Q9BXA5, F285A/F72Y/Y248F).
T5 construct: The full-length human SUCR1 and mutations were fused after the HA signal peptide and Flag tag; HA signal peptide (N); Flag (N); expressed in transfected cells; host or cells: HEK293 stably expressing Gα16 (pcDNA6.0, transient electroporation)
T5 sequence (Q9BXA5 1-334 F72Y/Y248F/F285A): T1 sequence (Q9BXA5 1-334 F175L) with F72Y, L175F, Y248F, F285A
Described as above. It is filed as cell-based.
Procedure: as §1, §2, §3

Experiment [6] addresses T6, SUCR1 mutants (variant named in the endpoint) (Homo sapiens, UniProt Q9BXA5, F72Y).
T6 construct: The full-length human SUCR1 and mutations were fused after the HA signal peptide and Flag tag; HA signal peptide (N); Flag (N); expressed in transfected cells; host or cells: HEK293 stably expressing Gα16 (pcDNA6.0, transient electroporation)
T6 sequence (Q9BXA5 1-334 F72Y): T1 sequence (Q9BXA5 1-334 F175L) with F72Y, L175F
The description is as above. Format: cell-based.
Procedure: as §1, §2, §3

In experiment [7] the test system is mock-transfected HEK293 cells. Kind of experiment: Calcium assay in mock-transfected (empty vector) HEK293 cells. It is filed as cell-based. The text has this:
Figure. R3 | Activity of the compounds on OXGR1 using calcium assays.
Concentration-response curves of the four agonists in activating OXGR1 through the calcium assays. HEK293 cells were transfected with OXGR1 or empty vector by electroporation.
Cells were then loaded with Fluo-4 AM and intracellular calcium changes after stimulation with different compounds were monitored. Responses were normalized to 100% for the maximal response of each compound on OXGR1. Data are mean ± S.E.M. from three independent experiments (n = 3), with three technical replicates performed for each […]
(1 picture or pasted object on this page, not shown here)

The next experiment concerns the target OXGR1 (Homo sapiens, UniProt Q96P68). Put plainly: Calcium mobilization assay (Fluo-4 AM), wild-type OXGR1 in HEK293. As to conditions: for signal at concentrations exceeding the reported range: bell-shaped response curve; for activity in OXGR1-transfected HEK293 cells: in words. (A change in cytosolic calcium serves as a functional read-out for many receptors and channels.)

Where [8] appears, read: HEK293, OXGR1 WT, each ligand normalized to WT (100%).
Where [9] appears, read: HEK293, OXGR1 WT, normalized to the maximal response elicited by AKG (100%).

Numbering of substitutions follows the chain as printed.

Procedure for OXGR1: as §1, §2, §3

One may read the Emax as the size of the effect at its maximum, as opposed to the concentration needed. Take `O=C(O)CCC(=O)C(=O)O` [AKG, α-ketoglutarate]: the Emax is 3.5 ± 1% in experiment [1] (HEK293); -6.6 ± 3% in experiment [2] (HEK293); 1.7 ± 3% in experiment [3] (HEK293); 5 ± 1% in experiment [4] (HEK293); 19 ± 2% in experiment [5] (HEK293); 4.1 ± 2% in experiment [6] (HEK293). The Emax on OXGR1 (HEK293) stood at 100 ± 11%. The “activity in mock-transfected cells” value in experiment [7] is given as “no activity”. At OXGR1, the “signal at concentrations exceeding the reported range” value is on record as “decrease in signal”. Moreover, at OXGR1, the “activity in OXGR1-transfected HEK293 cells” value is given as “robust activity”.

What is called EC50 is the concentration at which the effect is half-maximal. Regarding `C=C(CC(=O)O)C(=O)O` [ITA, itaconate], the concentration for a half-maximal effect (EC50) stood at 340 ± 300 µM in experiment [1] and 83 µM at OXGR1 (EC50, OXGR1 WT, Gq-mediated calcium signaling (Fig. 1D, Appendix Table S1)). Moreover, in experiment [1] (in words), the “ITA responsiveness of SUCR1-F175L” value was “partial ITA responsiveness”. Also, the Emax in experiment [2] (HEK293, SUCR1 F175L-I157M, Emax relative to the SUC) is -3.1 ± 4%; in experiment [3] (HEK293, SUCR1 F285A, Emax relative to the SUC) it was 6.3 ± 3%; in experiment [4] (HEK293, SUCR1 F72Y-L102F-F285A, Emax relative to the SUC), 43 ± 5%; in experiment [5] (HEK293, SUCR1 F72Y-F285A-Y248F, Emax relative to the SUC), 2.2 ± 2%; in experiment [6] (HEK293, SUCR1 F72Y, Emax relative to the SUC) it was 3 ± 3%; at OXGR1 (setting [8]), 100 ± 10%. For the same molecule, the Emax on OXGR1 (setting [9]) turned out to be 117 ± 4%. Besides, the “activity in mock-transfected cells” value in experiment [7] was “no activity”. Also, the “signal at concentrations exceeding the reported range” value on OXGR1 is “decrease in signal”. Also, the “activity in OXGR1-transfected HEK293 cells” value at OXGR1 is “robust activity”.

As to `O=C(O)CCC(=O)O` [SUC, succinate], the 50% effective concentration (EC50) is 18 ± 3 µM in experiment [1]; 150 ± 9 µM in experiment [2] (SUCR1 F175L-I157M); 3600 ± 800 µM in experiment [3] (SUCR1 F285A); 3900 ± 1300 µM in experiment [4] (SUCR1 F72Y-L102F-F285A); 2700 ± 780 µM in experiment [5] (SUCR1 F72Y-F285A-Y248F); 1800 ± 300 µM in experiment [6] (SUCR1 F72Y). Moreover, the “activity in mock-transfected cells” value in experiment [7] is “no activity”. For the same molecule, the Emax was 100 ± 4% at OXGR1 (setting [8]) and 154 ± 4% on OXGR1 (setting [9]). In addition, the “activity in OXGR1-transfected HEK293 cells” value on OXGR1 is listed as “robust activity”.

Values taken from paper PMC13372822 (The EMBO Journal, 2026).
